Data from patent US4443619A, “Chlorocitric acids” (Hoffmann-La Roche Inc., priority 1981, dated 1984).

Experiments:
Stomach Emptying = assay: Effect on stomach emptying ([14C]glucose load) in rats (Example 25); type: in vivo; conditions: 0.33 mmoles/kg oral, 60 min after [14C]glucose load, mean ± S.E.
Experimental: Rats were trained to consume a 3 hr 70% glucose meal from 8 a.m. to 11 a.m. daily. On the experimental day, compounds were administered orally by intubation 30 min before a [^14 C]glucose load was given also by intubation. […] Sixty minutes later the rats were killed by decapitation; blood and stomachs were collected on ice.
Data are expressed as follows: dpm×10^3 per ml of serum and dpm×10^3 per stomach.

[1] = test system: fatty acid and cholesterol syntheses; assay: Inhibition of fatty acid, lipid and cholesterol synthesis (summary statements)
[2] = Food intake in dogs, pyramiding oral doses (Examples 26 and 27); type: in vivo, beagle dogs
Experimental: Twelve beagle dogs of both sexes weighing 7.6-12.2 kg were used for this test. The test compounds were contained in gelatin capsules for oral administration to two dogs of each sex. The animals were weighed and food consumption calculated daily excluding weekends throughout the test period. Each animal received 800 grams of diet daily consisting of 400 grams of Wayne pellet dog food mixed with 400 ml distilled water. The animals received pyramiding oral doses of the test compound over the three week period. On Monday and Tuesday of the first week the animals were weighed and food consumption was recorded (control). The animals received 3 mg/kg on Wednesday and 10 mg/kg on Friday of the first week. Doses of 30, 100 and 300 mg/kg were administered on Monday, Wednesday and Friday respectively during the second week. A final dose of 1000 mg/kg was administered on Monday of the third week.
Food intake was determined by the procedure by pyramiding doses described in Example 26.

[3] = Anorectic activities of stereoisomers: 3-day food consumption and body weight gain in meal-fed rats; type: in vivo, Charles River female rats; conditions: 1.32 mmoles/kg oral, 3 days, mean ± S.E.
Experimental: Charles River female rats (Charles River Breeding Laboratories, Wilmington, Mass.), weighing 196 to 210 g, were individually housed in wire-bottomed cages in a temperature-regulated (22° C.) light-controlled room (12 hr light, 6 a.m. to 6 p.m. and 12 hr dark, 6 p.m. to 6 a.m.). Animals were fasted 48 hr, then meal-fed a 70% glucose diet from 8 to 11 a.m. Following 5 to 12 days alimentation on the meal-feeding regimen, rats were dosed with the appropriate compounds orally by intubation 1/2 hr before the 3 hr meal for 3 days. The total food consumption and body weight gained during the 3 day period were determined. The control group consisted of 16 rats, while the experimental group consists of 8 rats.

Cholesterol Synthesis = assay: Cholesterol synthesis in isolated rat hepatocytes (Example 23); type: cell-based, rat (female Charles River); conditions: 2 mM, 60 min, 37° C., 2000 µM
Experimental: Female Charles River rats were fasted 48 hr, then meal-fed a 1% corn oil, 70% glucose diet for 7 to 14 days from 8 to 11 a.m. The isolated rat hepatocytes were prepared by perfusing the liver in situ. The hepatocytes were incubated in an oscillating water bath at 37° C. for 60 min. […] All incubations were done in triplicate and all experiments were repeated at least twice. […] The contents of the center well were transferred to scintillation counting fluid and ^14 CO2 content was determined. […] The media was then acidified, extracted with hexane, and the extract counted (to determine the rate of lipogenesis). The conversion of ^3 H2 O and [^14 C]alanine into fatty acids or sterols was determined in a PDS/3, Mark II liquid scintillation counting system.

[4] = Effect of stereoisomers of chlorocitric acid on food consumption in meal-fed rats (Example 14); type: in vivo, Charles River female rats; conditions: mean ± S.E.
Experimental: Animals were fasted 48 hr, then meal-fed the 70% glucose diet described by A. C. […] Following 5 to 12 days alimentation on the meal-feeding regimen, rats were dosed with the appropriate compounds orally by intubation 1/2 hr before the 3 hr meal. Food cups were weighed immediately after the meal. The control group consisted of 5 to 10 rats, while the experimental group consisted of 4 to 6 rats.

[5] = Anorectic effect in 8 hour meal-fed Zucker rats (Example 17); type: in vivo, lean (Fa/-) and obese (fa/fa)
Experimental: Lean (Fa/-) Zucker rats and obese (fa/fa) Zucker rats of both sexes were individually housed in wire-bottomed cages in a temperature-regulated (22° C.) light-controlled room (12 hr light, 6 a.m. to 6 p.m. and 12 hr dark, 6 p.m. 6 a.m.). The animals were fed a high carbohydrate (70% glucose) diet ad libitum for 13 days, dosed with the indicated compounds by oral intubation for 9 days and allowed to recover for 3 days. The animals were then meal fed from 8 a.m. to 4 p.m. for a period of 5 days, following which they were continued on the same meal schedule for an additional 6 days. During the 6-day period, the animals were administered the indicated compounds by oral intubation at 8 a.m. and 12 p.m. Food cups were weighed immediately after the meal.

[6] = Body weight gain in 8 hour meal-fed Zucker rats (Example 18); type: in vivo, lean (Fa/-) and obese (fa/fa); conditions: 0.66 mmoles/kg b.i.d. oral, 6 days, mean ± S.E.
Experimental: Lean (Fa/-) Zucker rats and obese (fa/fa) Zucker rats of both sexes were individually housed in wire-bottomed cages in a temperature-regulated (22° C.) light-controlled room (12 hr light, 6 a.m. to 6 p.m. and 12 hr dark, 6 p.m. to 6 a.m.). The animals were fed a high carbohydrate (70% glucose) diet ad libitum for 13 days, dosed with the indicated compounds by oral intubation for 9 days and allowed to recover for 3 days. The animals were then meal fed from 8 a.m. to 4 p.m. for a period of 5 days, following which they were continued on the same meal schedule for an additional 6 days. During the 6-day period, the animals were administered the indicated compounds by oral intubation at 8 a.m. and 12 p.m. Body weight gain during the 6-day period was determined.

[7] = test day 20, no dose, (±) one animal, (+) and (-) two animals

## O=C(O)C[C@@](O)(C(=O)O)[C@@H](Cl)C(=O)O [(-)-threo-Chlorocitric acid, (-)-threo-chlorocitric acid]
Stomach Emptying
  Serum, total per ml: 1.9 ± 0.4 dpm × 10^3
  Stomach Contents, total per stomach: 2760 ± 69 dpm × 10^3
[1]
  metabolic activity on lipid (fatty acid) and cholesterol syntheses: devoid of metabolic activity as an inhibitor of lipid and cholesterol syntheses
[2]; [7]
  Food Consumption, % of control: 82 % of control
  Food consumption: 607 ± 193 g
[2]; test days -2, -1, before dosing (control period)
  Food consumption: 743 ± 54 g
[3]
  3-Day Body Weight Gain: -22.4 ± 2.3 g
  3-Day Food Consumption: 10.5 ± 1.3 g
Cholesterol Synthesis
  Cholesterol Synthesis, 3H2O converted: 98 % of control
[4]; 0.66 mmoles/kg oral, control 8.2 ± 1.2
  Food consumption: 4.8 ± 0.7 g
[4]; 2.63 mmoles/kg oral, control 13.5 ± 0.8
  Food consumption: 2.2 ± 0.5 g
[5]; Fa/- lean, 0.66 mmoles/kg oral, treatment day 1
  Daily Food Consumption: 12.5 ± 1.1 g
[5]; Fa/- lean, 0.66 mmoles/kg oral, treatment day 2
  Daily Food Consumption: 7.0 ± 0.9 g
[5]; Fa/- lean, 0.66 mmoles/kg oral, treatment day 3
  Daily Food Consumption: 7.2 ± 0.7 g
[5]; Fa/- lean, 0.66 mmoles/kg oral, treatment day 4
  Daily Food Consumption: 5.4 ± 1.1 g
[5]; Fa/- lean, 0.66 mmoles/kg oral, treatment day 5
  Daily Food Consumption: 7.3 ± 1.5 g
[5]; Fa/- lean, 0.66 mmoles/kg oral, treatment day 6
  Daily Food Consumption: 7.5 ± 1.3 g
[5]; Fa/- lean, 0.66 mmoles/kg, day 0 (pretreatment)
  Daily Food Consumption: 10.8 ± 1.0 g
[5]; fa/fa obese, 0.66 mmoles/kg oral, treatment day 1
  Daily Food Consumption: 10.7 ± 0.7 g
[5]; fa/fa obese, 0.66 mmoles/kg oral, treatment day 2
  Daily Food Consumption: 5.9 ± 1.5 g
[5]; fa/fa obese, 0.66 mmoles/kg oral, treatment day 3
  Daily Food Consumption: 5.8 ± 0.9 g
[5]; fa/fa obese, 0.66 mmoles/kg oral, treatment day 4
  Daily Food Consumption: 5.5 ± 0.9 g
[5]; fa/fa obese, 0.66 mmoles/kg oral, treatment day 5
  Daily Food Consumption: 4.9 ± 1.0 g
[5]; fa/fa obese, 0.66 mmoles/kg oral, treatment day 6
  Daily Food Consumption: 5.1 ± 1.1 g
[5]; fa/fa obese, 0.66 mmoles/kg, day 0 (pretreatment)
  Daily Food Consumption: 13.1 ± 1.1 g
[6]; Fa/- lean
  Body Weight Gain: -20.7 ± 2.2 g
[6]; fa/fa obese
  Body Weight Gain: -33.5 ± 3.1 g
